Results on 58 compounds are retold here after ChEMBL document CHEMBL5729134, “Apoptosis signal-regulating kinase 1 inhibitors and methods of use thereof” (2022).

In this assay the target is T1, Mitogen-activated protein kinase kinase kinase 5 (Homo sapiens, UniProt Q99683).
T1 sequence (Q99683 whole entry): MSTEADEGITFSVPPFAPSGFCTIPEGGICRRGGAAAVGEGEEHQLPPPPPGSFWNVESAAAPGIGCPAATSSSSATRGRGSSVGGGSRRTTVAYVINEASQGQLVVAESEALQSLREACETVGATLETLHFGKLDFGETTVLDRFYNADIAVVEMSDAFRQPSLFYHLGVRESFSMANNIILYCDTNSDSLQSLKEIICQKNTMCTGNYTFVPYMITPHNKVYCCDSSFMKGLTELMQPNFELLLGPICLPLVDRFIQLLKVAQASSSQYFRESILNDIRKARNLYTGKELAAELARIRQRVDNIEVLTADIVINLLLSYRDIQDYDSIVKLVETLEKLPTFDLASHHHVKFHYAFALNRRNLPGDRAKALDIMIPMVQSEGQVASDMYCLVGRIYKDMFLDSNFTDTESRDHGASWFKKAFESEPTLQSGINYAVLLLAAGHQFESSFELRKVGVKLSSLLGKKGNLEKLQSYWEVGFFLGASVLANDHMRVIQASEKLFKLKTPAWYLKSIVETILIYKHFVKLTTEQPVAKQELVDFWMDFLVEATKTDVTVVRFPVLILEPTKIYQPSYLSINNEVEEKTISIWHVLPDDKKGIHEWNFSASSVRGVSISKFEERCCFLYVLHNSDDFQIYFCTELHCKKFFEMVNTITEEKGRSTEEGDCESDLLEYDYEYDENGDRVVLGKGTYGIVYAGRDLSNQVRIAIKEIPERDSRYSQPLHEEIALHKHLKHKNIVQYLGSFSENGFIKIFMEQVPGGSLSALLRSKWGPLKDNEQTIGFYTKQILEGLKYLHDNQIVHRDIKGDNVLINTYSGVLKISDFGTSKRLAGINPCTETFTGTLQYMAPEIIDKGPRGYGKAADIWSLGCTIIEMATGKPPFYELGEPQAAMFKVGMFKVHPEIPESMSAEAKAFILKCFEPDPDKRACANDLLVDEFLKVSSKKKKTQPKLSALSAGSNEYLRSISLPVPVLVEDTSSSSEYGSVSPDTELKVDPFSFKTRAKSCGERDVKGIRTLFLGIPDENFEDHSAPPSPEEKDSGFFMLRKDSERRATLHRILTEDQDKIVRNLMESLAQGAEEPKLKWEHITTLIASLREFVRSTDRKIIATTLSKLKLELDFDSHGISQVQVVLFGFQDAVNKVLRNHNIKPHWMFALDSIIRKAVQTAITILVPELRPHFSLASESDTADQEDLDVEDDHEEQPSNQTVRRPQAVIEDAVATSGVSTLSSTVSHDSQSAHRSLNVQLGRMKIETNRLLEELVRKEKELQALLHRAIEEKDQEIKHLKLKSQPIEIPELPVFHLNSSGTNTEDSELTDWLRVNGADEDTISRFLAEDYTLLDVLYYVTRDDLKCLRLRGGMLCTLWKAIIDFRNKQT
Put plainly: HTRF KinEASE Assay : ASK1 was purchased from Thermofisher (Catalogue #PV4011), ATP was purchased from Sigma (Catalogue #A7699), HTRF® KinEASE Assay System was obtained from Cisbio (Bedford, Mass.). ½ Area plate was purchased from Perkin Elmer (Catalogue ##6005560). HTRF® KinEASE-STK is a generic method for measuring serine/threonine kinase activities using a time-resolved fluorescence resonance energy transfer (TR-FRET) immunoassay. The IC50 value for each compound was determined in the presence of compound (various concentration from 0 to 10 μM) and a fixed amount of ATP and peptide substrates. The test compound, 1 μM STK3 peptide substrate, and […] are incubated with kinase reaction buffer containing 50 mM HEPES Ph 7.5, 0.01% BRIJ-35, 10 mM MgCl2, and 1 mM EGTA for 30 minutes. 100 μM ATP is added to start kinase reaction and incubated for 3 hours. The STK3-antibody labeled with Eu3+-Cryptate and 125 nM streptavidin-XL665 are mixed in a single addition with stop reagents provided by the Cisbio kit used to stop the kinase reaction. Fluorescence is detected using an Envision Multilabeled 2014 reader from PerkinElmer. The Fluorescence is measured at 615 nm (Cryptate) and 665 nm (XL665) and a ratio of 665 nm/615 nm is calculated for each well. The resulting TR-FRET is proportional to the phosphorylation level. Staurosporine was used as the positive control. IC50 was determined by Xlfit 5.3.
Take `COc1cc2c(cc1C(=O)Nc1cccc(-c3nnnn3C(C)C)n1)CN(S(=O)(=O)CCC(F)(F)F)CC2`: the IC50 (commonly the concentration needed to halve the response being measured) is 1.25 to 10 nM.

For `CCOC(=O)N1CCc2cc(OC)c(C(=O)Nc3cccc(-c4nncn4[C@H](C)CO)n3)cc2C1`, the IC50 is < 1.25 nM.

Consider `COc1cc2c(cc1C(=O)Nc1cccc(-c3nnnn3C(C)C)n1)CN(C(=O)c1ccc(F)cc1)CC2`, for which the IC50 is < 1.25 nM.

In the case of `C[C@H](CO)n1cnnc1-c1cccc(NC(=O)c2cc3c(cc2F)CCN(C(=O)C(C)(C)C)C3)n1`, the IC50 is 1.25 to 10 nM.

In the case of `C[C@H](CO)n1cnnc1-c1cccc(NC(=O)c2cc3c(cc2F)CCN(C(=O)OC2CCCC2)C3)n1`, the IC50 was 1.25 to 10 nM.

Take `CC(C)n1cnnc1-c1cccc(NC(=O)c2cc3c(cn2)CCN(C(=O)N2CCCC2)C3)n1`: the IC50 was < 1.25 nM.

On to `COc1cc2c(cc1C(=O)Nc1cccc(-c3nnnn3C(C)C)n1)CN(S(=O)(=O)C1CC1)CC2`, for which the IC50 was < 1.25 nM.

For `COc1cc2c(cc1C(=O)Nc1cccc(-c3nnnn3C(C)C)n1)CN(C(=O)C(C)(C)C)CC2`, the IC50 was < 1.25 nM.

Regarding `COc1cc2c(cc1C(=O)Nc1cccc(-c3nnnn3C(C)C)n1)CN(C(=O)OC(C)C)CC2`, the IC50 was < 1.25 nM.

Turning to `COc1cc2c(cc1C(=O)Nc1cccc(-c3nncn3[C@H](C)CO)n1)CN(S(=O)(=O)C1CC1)CC2`, the IC50 was 1.25 to 10 nM.

Regarding `C[C@H](CO)n1cnnc1-c1cccc(NC(=O)c2cc3c(cc2F)CCN(C(=O)OCCF)C3)n1`, the IC50 is < 1.25 nM.

With `COc1cc2c(cc1C(=O)Nc1cccc(-c3nnnn3C(C)C)n1)CN(C(=O)OCc1ccccc1)CC2`, the IC50 is < 1.25 nM.

Take `CC(C)n1cnnc1-c1cccc(NC(=O)c2cc3c(cn2)CCN(S(=O)(=O)c2ccccc2)C3)n1`: the IC50 is 1.25 to 10 nM.

With `CCOC(=O)N1CCc2cnc(C(=O)Nc3cccc(-c4nncn4C(C)C)n3)cc2C1`, the IC50 is 1.25 to 10 nM.

Turning to `COc1cc2c(cc1C(=O)Nc1cccc(-c3nncn3C(C)C)n1)CN(C(=O)c1ccc(F)cc1)CC2`, the IC50 was < 1.25 nM.

As to `CCNC(=O)N1CCc2cc(OC)c(C(=O)Nc3cccc(-c4nnnn4C(C)C)n3)cc2C1`, the IC50 was < 1.25 nM.

Consider `CCOC(=O)N1CCc2cnc(C(=O)Nc3cccc(-c4nncn4[C@H](C)CO)n3)cc2C1`, for which the IC50 is < 1.25 nM.

Regarding `COc1cc2c(cc1C(=O)Nc1cccc(-c3nncn3[C@H](C)CO)n1)CN(C)CC2`, the IC50 was < 1.25 nM.

With `COc1cc2c(cc1C(=O)Nc1cccc(-c3nnnn3C(C)C)n1)CN(C(C)C)CC2`, the IC50 is 1.25 to 10 nM.

`C[C@H](CO)n1cnnc1-c1cccc(NC(=O)c2cc3c(cc2F)CCN(C(=O)N2CCCC2)C3)n1`: the IC50 was < 1.25 nM.

Consider `COc1cc2c(cc1C(=O)Nc1cccc(-c3nncn3[C@H](C)CO)n1)CN(C(=O)c1ccc(F)cc1)CC2`, for which the IC50 was 1.25 to 10 nM.

With `CC(C)OC(=O)N1CCc2cc(F)c(C(=O)Nc3cccc(-c4nncn4[C@H](C)CO)n3)cc2C1`, the IC50 is < 1.25 nM.

For the compound `C[C@H](CO)n1cnnc1-c1cccc(NC(=O)c2cc3c(cn2)CCN(S(=O)(=O)c2ccccc2)C3)n1`, the IC50 was < 1.25 nM.

With `CC(C)N1CCc2cc(F)c(C(=O)Nc3cccc(-c4nncn4[C@H](C)CO)n3)cc2C1`, the IC50 is < 1.25 nM.

Take `COc1cc2c(cc1C(=O)Nc1cccc(-c3nncn3C(C)C)n1)CN(C(=O)N1CCCC1)CC2`: the IC50 was < 1.25 nM.

Turning to `C[C@H](CO)n1cnnc1-c1cccc(NC(=O)c2cc3c(cn2)CCN(C(=O)N2CCCC2)C3)n1`, the IC50 is 1.25 to 10 nM.

In the case of `CC(C)CN1CCc2cnc(C(=O)Nc3cccc(-c4nncn4[C@H](C)CO)n3)cc2C1`, the IC50 is 1.25 to 10 nM.

On to `COc1cc2c(cc1C(=O)Nc1cccc(-c3nnnn3C(C)C)n1)CN(C(=O)N1CCCC1)CC2`, for which the IC50 was < 1.25 nM.

Regarding `COc1cc2c(cc1C(=O)Nc1cccc(-c3nnnn3C(C)C)n1)CN(C)CC2`, the concentration for half-maximal inhibition (IC50) was < 1.25 nM.

Take `C[C@H](CO)n1cnnc1-c1cccc(NC(=O)c2cc3c(cn2)CCN(Cc2ccccn2)C3)n1`: the IC50 was < 1.25 nM.

Take `CCNC(=O)N1CCc2cnc(C(=O)Nc3cccc(-c4nncn4[C@H](C)CO)n3)cc2C1`: the IC50 is 1.25 to 10 nM.

For `C[C@H](CO)n1cnnc1-c1cccc(NC(=O)c2cc3c(cn2)CCN(C(=O)OCC(F)(F)F)C3)n1`, the IC50 is < 1.25 nM.

Consider `CC(C)COC(=O)N1CCc2cc(F)c(C(=O)Nc3cccc(-c4nncn4[C@H](C)CO)n3)cc2C1`, for which the IC50 was 1.25 to 10 nM.

For the compound `C[C@H](CO)n1cnnc1-c1cccc(NC(=O)c2cc3c(cc2F)CCN(C(=O)OCC(F)(F)F)C3)n1`, the IC50 was < 1.25 nM.

For the compound `COc1cc2c(cc1C(=O)Nc1cccc(-c3nncn3C(C)C)n1)CN(C(=O)C(C)(C)C)CC2`, the IC50 is 1.25 to 10 nM.

Take `CCOC(=O)N1CCc2cc(F)c(C(=O)Nc3cccc(-c4nncn4[C@H](C)CO)n3)cc2C1`: the IC50 is < 1.25 nM.

As for `COc1cc2c(cc1C(=O)Nc1cccc(-c3nncn3C(C)C)n1)CN(C)CC2`, the IC50 was < 1.25 nM.

Take `COc1cc2c(cc1C(=O)Nc1cccc(-c3nncn3C(C)C)n1)CN(S(=O)(=O)CCC(F)(F)F)CC2`: the IC50 is 1.25 to 10 nM.

Turning to `CC(C)n1cnnc1-c1cccc(NC(=O)c2cc3c(cc2F)CCN(c2ncccn2)C3)n1`, the IC50 was < 1.25 nM.

Consider `CCOC(=O)N1CCc2cc(OC)c(C(=O)Nc3cccc(-c4nnnn4C(C)C)n3)cc2C1`, for which the IC50 is < 1.25 nM.

For the compound `CC(C)n1cnnc1-c1cccc(NC(=O)c2cc3c(cn2)CCN(C(=O)c2ccc(F)cc2)C3)n1`, the IC50 is 1.25 to 10 nM.

As for `COc1cc2c(cc1C(=O)Nc1cccc(-c3nncn3[C@H](C)CO)n1)CN(C(=O)OC(C)C)CC2`, the IC50 was 1.25 to 10 nM.

For `CC(C)n1cnnc1-c1cccc(NC(=O)c2cc3c(cn2)CCN(Cc2ccccn2)C3)n1`, the IC50 is < 1.25 nM.

On to `C[C@H](CO)n1cnnc1-c1cccc(NC(=O)c2cc3c(cc2F)CCN(S(=O)(=O)C2CC2)C3)n1`, for which the concentration for half-maximal inhibition (IC50) was < 1.25 nM.

For `C[C@H](CO)n1cnnc1-c1cccc(NC(=O)c2cc3c(cc2F)CCN(C(=O)c2ccc(F)cc2)C3)n1`, the IC50 was 1.25 to 10 nM.

In the case of `C[C@H](CO)n1cnnc1-c1cccc(NC(=O)c2cc3c(cc2F)CCN(C(=O)N(C)C)C3)n1`, the IC50 is 1.25 to 10 nM.

In the case of `C[C@H](CO)n1cnnc1-c1cccc(NC(=O)c2cc3c(cc2F)CCN(C)C3)n1`, the IC50 is 1.25 to 10 nM.

Turning to `COc1cc2c(cc1C(=O)Nc1cccc(-c3nncn3[C@H](C)CO)n1)CN(C(=O)OCC(F)(F)F)CC2`, the IC50 was 1.25 to 10 nM.

Take `C[C@H](CO)n1cnnc1-c1cccc(NC(=O)c2cc3c(cn2)CCN(S(=O)(=O)N(C)C)C3)n1`: the IC50 was < 1.25 nM.

Turning to `COc1cc2c(cc1C(=O)Nc1cccc(-c3nnnn3C(C)C)n1)CN(C(=O)OCC(F)(F)F)CC2`, the IC50 is < 1.25 nM.

For the compound `COc1cc2c(cc1C(=O)Nc1cccc(-c3nncn3C(C)C)n1)CN(C(=O)OCC(F)(F)F)CC2`, the IC50 is < 1.25 nM.

For `CCNC(=O)N1CCc2cc(OC)c(C(=O)Nc3cccc(-c4nncn4[C@H](C)CO)n3)cc2C1`, the IC50 was < 1.25 nM.

`C[C@H](CO)n1cnnc1-c1cccc(NC(=O)c2cc3c(cc2F)CCN(S(=O)(=O)CCC(F)(F)F)C3)n1`: the half-maximal inhibitory concentration (IC50) was < 1.25 nM.

On to `COc1cc2c(cc1C(=O)Nc1cccc(-c3nncn3C(C)C)n1)CN(C(C)C)CC2`, for which the IC50 is 1.25 to 10 nM.

For the compound `COc1cc2c(cc1C(=O)Nc1cccc(-c3nncn3C(C)C)n1)CN(S(=O)(=O)C1CC1)CC2`, the IC50 is 1.25 to 10 nM.

Take `C[C@H](CO)n1cnnc1-c1cccc(NC(=O)c2cc3c(cc2F)CCN(C(=O)OC2CC2)C3)n1`: the IC50 is 1.25 to 10 nM.

Consider `COc1cc2c(cc1C(=O)Nc1cccc(-c3nncn3[C@H](C)CO)n1)CN(C(=O)OC(C)(C)C)CC2`, for which the IC50 is < 1.25 nM.

Consider `CCNC(=O)N1CCc2cc(OC)c(C(=O)Nc3cccc(-c4nncn4C(C)C)n3)cc2C1`, for which the half-maximal inhibitory concentration (IC50) is < 1.25 nM.
